From patent US8759073B2, “Method for effectively controlling harmful organisms in large-scale culture of microalgae” (ENN Science & Technology Development Co., Ltd., priority 2009, dated 2014)

System: Oxyrrhis
Experiment: Control of Oxyrrhis contamination in microalgae culture, microscope examination
Format: cell-based, Oxyrrhis sp
From the text: If the contaminated alga liquid is identified as acid tolerant contamination, pH value is raised up with alkalis in the culture system of the microalgae and maintained for a period of time. The pH value cannot be higher than the maximal tolerable pH of the microalgae. […] In an embodiment, said alkali can be ammonia. In an embodiment, said alkali can be NaOH. In an embodiment, said alkali can be 1M NaOH. Depending on different pH requirements and different culture systems, alkalis with different concentrations can be used according to the agitation condition, as long as the transient pH is not too high to be harmful to microalgae, and dilution of the cell concentration in the culture system (caused by adding too much alkali solution) should also be avoided. […] In an embodiment, the pH of the culture system is adjusted to 11.5-12.0 with 1M NaOH or 1M ammonia. In an embodiment, the pH of the culture system is adjusted to 11.0-11.8 or 8.0-11.0 with 1M NaOH or 1M ammonia. In an embodiment, the pH of the culture system is adjusted to 8.0-11.0, 11.5-12.0 or 11.0-11.8 and maintained for 3 hours.
Microscope examination is always used as one of the bases for determining the growth status in the process of microalgae culture.
Chlorella sp. (purchased from FACHB collection, Wuhan Aquatic Research Institure, Chinses Academy of Sciences) was cultured in a 320 L bubbling reactor (manufactured by Longfang Jiangchuan plexiglass Co. Ltd., φ300 mm×2 m) out-of-doors under a sunlight film. The culture condition included: a temperature of about 25 °C, a humidity of 60%-80%, and an illumination of 8000-20000 lux. Modified SM (see Table 2) (pH 7.0-9.0 for the normal culture) was used. […] Then, CO2 was aerated to adjust pH to be 7.0-8.0.
Chlorella sp. (obtained from Jinan University) was cultured in a 320 L bubbling reactor (manufactured by Longfang Jiangchuan plexiglass Co. Ltd., φ300 mm×2 m) out-of-doors under a sunlight film (with a temperature of about 25 °C, a humidity of 60%-80%, and an illumination of 8000-20000 lux). Modified SM medium (see Table 2) was used. When Amoeba, Oxyrrhis and ciliate contaminations were observed is with an oil immersion lens (Nikon fluorescent invert microscope Ti series), pH was adjusted to 11.0-11.8 with 1M NaOH. […] Then, CO2 was aerated continuously to saturation (pH 5.6). […] Then air was sufficiently aerated.
Chlorococcum sp. (obtained from Qingdao Marine Institute) was cultured in a 60 L glass plate reactor (manufactured by Longfang Jiangchuan plexiglass Co. Ltd., OP=10 cm) under a sunlight film (with a temperature of about 25 °C, a humidity of 60%-80%, and an illumination of 8000-20000 lux) (pH 8.0-9.0 for the normal culture). Modified BG11 medium (see Table 3) was used. […] Then CO2 was aerated and pH was adjusted to 7.0-8.0.
Chlorococcum sp. (obtained from Qingdao Marine Institute) was cultured in a 60 L glass plate reactor (manufactured by Longfang Jiangchuan plexiglass Co. Ltd., OP=10 cm) under a sunlight film (with a temperature of about 25 °C, a humidity of 60%-80%, and an illumination of 8000-20000 lux) (pH 8.0-9.0 for the normal culture). Modified BG11 medium (see Table 3) was used. […] One hour later, CO2 was aerated to saturation (about pH 5.6) for 24 hour continuously. […] Then air was sufficiently aerated.

Measured: Oxyrrhis, result of microscope examination

O=C=O [CO2, carbon dioxide]
no Amoeba or Oxyrrhis: Example 4, after 1M NaOH pH 11.0-11.8 1 h, CO2 to saturation (pH 5.6) 24 hours | Example 7, after 1M NaOH pH 11.5-12.0 1 h, CO2 to saturation (about pH 5.6) 24 hour | Example 10, after 1M NaOH pH 11.5-12.0 1 h, CO2 to saturation (about pH 5.8) 23 hour | Example 12, after 1M ammonia pH 9.0 1 h, CO2 to saturation (pH 5.6) 24 hours | Example 14, after 1M ammonia pH 9.0 1 h, CO2 to saturation (about pH 5.6) 24 hour | Example 15, after 1M ammonia pH 10.0 1 h, CO2 to saturation (about pH 5.8) 23 hour
